Results: PubChem BioAssay AID2060356 (Molecular Pharmacology Branch, DTP, NCI, 2025)

Test system: PDC tumor spheroids with HUVEC/MSC, viability
Assay: Anticancer human tumor 439559-082-T-J2-PDC patient-derived colon adenocarcinoma cell line growth inhibition [TAK]
Conditions: for IC50: curve of first compound; for viability, T/C: stronger effect = lower value
Outline: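 Spheroids of 60% malignant cells, 25% HUVEC and 15% hMSC were exposed to targeted agents combined with TAK-243 or ipatasertib. Concentrations started at or near clinical Cmax (10 microM if unknown) and descended in half-log steps.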
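Note: spheroids exposed to drugs for seven days before readout.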

CCCS(=O)(=O)Nc1ccc(F)c(C(=O)c2c[nH]c3ncc(-c4ccc(Cl)cc4)cc23)c1F + CC(C)NCC(C(=O)N1CCN(c2ncnc3c2C(C)CC3O)CC1)c1ccc(Cl)cc1
IC50 (second compound 0.3 µM): > 100 µM
IC50 (second compound 0.949 µM): > 100 µM
IC50 (second compound 3 µM): > 100 µM
IC50 (second compound 9.49 µM): > 100 µM
IC50 (second compound 30 µM): 24.8 µM
viability, T/C (second compound 0.3 µM, first compound 0.316 µM): 117%
viability, T/C (second compound 0.3 µM, first compound 1 µM): 103%
viability, T/C (second compound 0.3 µM, first compound 3.16 µM): 100%
viability, T/C (second compound 0.3 µM, first compound 10 µM): 91.5%
viability, T/C (second compound 0.3 µM, first compound 31.6 µM): 93.4%
viability, T/C (second compound 0.3 µM, first compound 100 µM): 106%
viability, T/C (second compound 0.949 µM, first compound 0.316 µM): 122%
viability, T/C (second compound 0.949 µM, first compound 1 µM): 99.1%
viability, T/C (second compound 0.949 µM, first compound 3.16 µM): 94.6%
viability, T/C (second compound 0.949 µM, first compound 10 µM): 86.2%
viability, T/C (second compound 0.949 µM, first compound 31.6 µM): 21.8%
viability, T/C (second compound 0.949 µM, first compound 100 µM): 100%
viability, T/C (second compound 3 µM, first compound 0.316 µM): 108%
viability, T/C (second compound 3 µM, first compound 1 µM): 107%
viability, T/C (second compound 3 µM, first compound 3.16 µM): 88.3%
viability, T/C (second compound 3 µM, first compound 10 µM): 76%
viability, T/C (second compound 3 µM, first compound 31.6 µM): 51.6%
viability, T/C (second compound 3 µM, first compound 100 µM): 94.6%
viability, T/C (second compound 9.49 µM, first compound 0.316 µM): 96.6%
viability, T/C (second compound 9.49 µM, first compound 1 µM): 101%
viability, T/C (second compound 9.49 µM, first compound 3.16 µM): 80.1%
viability, T/C (second compound 9.49 µM, first compound 10 µM): 72.5%
viability, T/C (second compound 9.49 µM, first compound 31.6 µM): 8.73%
viability, T/C (second compound 9.49 µM, first compound 100 µM): 88.5%
viability, T/C (second compound 30 µM, first compound 0.316 µM): 87.9%
viability, T/C (second compound 30 µM, first compound 1 µM): 94.6%
viability, T/C (second compound 30 µM, first compound 3.16 µM): 84.8%
viability, T/C (second compound 30 µM, first compound 10 µM): 71.7%
viability, T/C (second compound 30 µM, first compound 31.6 µM): 1.55%
viability, T/C (second compound 30 µM, first compound 100 µM): 86.9%

CC(=O)Nc1cccc(-n2c(=O)n(C3CC3)c(=O)c3c(Nc4ccc(I)cc4F)n(C)c(=O)c(C)c32)c1 + CC(C)NCC(C(=O)N1CCN(c2ncnc3c2C(C)CC3O)CC1)c1ccc(Cl)cc1
IC50 (second compound 0.3 µM): > 0.03 µM
IC50 (second compound 0.949 µM): > 0.03 µM
IC50 (second compound 3 µM): > 0.03 µM
IC50 (second compound 9.49 µM): > 0.03 µM
IC50 (second compound 30 µM): > 0.03 µM
viability, T/C (second compound 0.3 µM, first compound 94.9 pM): 105%
viability, T/C (second compound 0.3 µM, first compound 0.0003 µM): 97.6%
viability, T/C (second compound 0.3 µM, first compound 0.000949 µM): 85.8%
viability, T/C (second compound 0.3 µM, first compound 0.003 µM): 74.3%
viability, T/C (second compound 0.3 µM, first compound 0.00949 µM): 70.5%
viability, T/C (second compound 0.3 µM, first compound 0.03 µM): 62.1%
viability, T/C (second compound 0.949 µM, first compound 94.9 pM): 90.4%
viability, T/C (second compound 0.949 µM, first compound 0.0003 µM): 89.7%
viability, T/C (second compound 0.949 µM, first compound 0.000949 µM): 93.9%
viability, T/C (second compound 0.949 µM, first compound 0.003 µM): 75.1%
viability, T/C (second compound 0.949 µM, first compound 0.00949 µM): 66.6%
viability, T/C (second compound 0.949 µM, first compound 0.03 µM): 62.2%
viability, T/C (second compound 3 µM, first compound 94.9 pM): 102%
viability, T/C (second compound 3 µM, first compound 0.0003 µM): 98.8%
viability, T/C (second compound 3 µM, first compound 0.000949 µM): 76.8%
viability, T/C (second compound 3 µM, first compound 0.003 µM): 77.2%
viability, T/C (second compound 3 µM, first compound 0.00949 µM): 72.9%
viability, T/C (second compound 3 µM, first compound 0.03 µM): 61%
viability, T/C (second compound 9.49 µM, first compound 94.9 pM): 88.7%
viability, T/C (second compound 9.49 µM, first compound 0.0003 µM): 92.9%
viability, T/C (second compound 9.49 µM, first compound 0.000949 µM): 84.4%
viability, T/C (second compound 9.49 µM, first compound 0.003 µM): 80.5%
viability, T/C (second compound 9.49 µM, first compound 0.00949 µM): 66.9%
viability, T/C (second compound 9.49 µM, first compound 0.03 µM): 55.1%
viability, T/C (second compound 30 µM, first compound 94.9 pM): 89%
viability, T/C (second compound 30 µM, first compound 0.0003 µM): 91.8%
viability, T/C (second compound 30 µM, first compound 0.000949 µM): 81.7%
viability, T/C (second compound 30 µM, first compound 0.003 µM): 73.5%
viability, T/C (second compound 30 µM, first compound 0.00949 µM): 69.2%
viability, T/C (second compound 30 µM, first compound 0.03 µM): 54.8%
